Results from US9072753B1, “Gargle method to reduce the duration of common cold symptoms” (priority 2001, dated 2015).
“Also recorded” adds a separate entry of the source. Read-outs that look alike come from different tables or passages of the source.

Assays:
[1] = tested on: Rhinovirus 14; experiment: Antiviral activity testing against rhinovirus (Rhinovirus 14 in KB cells); type: cell-based; settings: for Virus Inhibition: 4 values and above indicate excellent antiviral activity
[2] = tested on: common cold; experiment: Case examples, nonalcoholic mouthwash remedies in subjects with a cold; type: in vivo, human; settings: single subject per example; 15 ml mouthwash three times a day for at least two days
Method: In order to facilitate a more complete understanding of the invention, a number of Examples are provided below. However, the scope of the invention is not limited to specific embodiments disclosed in these Examples, which are for purposes of illustration only. In each of the following Examples, the subjects were administered one tablespoon (15 ml) of remedy in a mouthwash formulation three times a day for at least two days comprising: […]

[3] = tested on: KB cells
[4] = tested on: Influenza A/Hong Kong/68 (H3N2); experiment: Antiviral activity testing against influenza virus in MDCK cells; type: cell-based; settings: Influenza A/Hong Kong/68 (H3N2) in MDCK cells; for Virus Inhibition: 4 values and above indicate excellent antiviral activity
Description: Results of antiviral invitro testing performed at baylor college of medicine department of molecular virology & microbiology.

[5] = tested on: Madin Darby Canine Kidney (MDCK) cells; experiment: Toxicity of materials in the influenza test (MDCK cells); type: cell-based; settings: Table 2
[6] = healthy HIV-negative humans; cited from earlier work
[7] = tested on: myxoviruses; settings: cited from earlier work
[8] = tested on: broad spectrum of viruses; settings: cited from earlier work
[9] = in vivo; cited from earlier work
[10] = tested on: cells in tissue culture; settings: high concentrations; cited from earlier work
[11] = tested on: RNA-dependent DNA polymerases (reverse transcriptases) of both Moloney and Rauscher leukemia viruses; settings: cited from earlier work
[12] = tested on: common cold; settings: after seven days; 37 zinc-treated subjects; cited from earlier work

Compound	Virus Inhibition [1]	Recovery from the cold [2]	Virus Inhibition [4]	Toxicity [5]	Toxicity ([3]; human)	other results
O=C1O[C@H]([C@@H](O)CO)C(O)=C1O [Ascorbic Acid]	4	within one day; also recorded: within two days	–	–	–	–
O=C([O-])O.[Na+] [Baking Soda]	4	within one day; also recorded: within two days; also recorded: within three days	2	0	–	Selective Inhibition [1]: 2; Toxicity [3]: 2; Selective Inhibition [4]: 4
CCCc1cc(=O)oc2c3c(c4c(c12)OC(C)(C)C=C4)O[C@H](C)[C@@H](C)[C@@H]3O [Calanolide A]	–	–	–	–	–	Safety and tolerability [6]: safe and well tolerated
O=C(O)CC(O)(CC(=O)O)C(=O)O [Citric Acid]	6	within three days; also recorded: within one day; also recorded: within four days; also recorded: within two days; also recorded: within ten days; also recorded: within five days	6	6	6	–
OO [Hydrogen Peroxide]	7	–	6	6	7	–
O=C(O)CC(O)C(=O)O (centres unmarked) [Malic Acid]	6	–	6	6	6	–
COC(=O)C1=CO[C@@H](C)[C@@H](C=O)[C@@H]1CC(=O)[O-].COC(=O)C1=CO[C@@H](C)[C@@H](C=O)[C@@H]1CC(=O)[O-].[Ca+2] [calcium elenolate]	–	–	–	–	–	Inactivation of myxoviruses [7]: inactivates all myxoviruses so far tested; Virucidal activity in vitro [8]: virucidal for a broad spectrum of viruses in vitro; Tolerability in animals [9]: well tolerated; Toxicity to cells in tissue culture [10]: relatively nontoxic; Inhibition of reverse transcriptases [11]: inhibits
zinc	–	–	–	–	–	Subjects asymptomatic [12]: 86%
